Columns and labels:
[1] = system: 20-month-old aged female C57BL/6 mice; assay: Physical functional analysis (grip strength, rotarod, hanging, balance beam) in aged mice; assay type: in vivo, mouse
Method: (§1) Forelimb grip strength was measured by a grip strength meter (Muromachi Kikai Co., Tokyo, Japan). Each mouse performed five trials for force measurement, and the values were normalized to body and recorded. A rotarod test was carried out by using the rotarod treadmill (Singa Technology Corporation, Taoyuan City, Taiwan). The speed was adjusted to 4 rpm for 4 sec, 10 rpm for 10 sec, 20 rpm for 20 sec, and then 40 rpm until the mice fell. Mice were familiarized with the rotarod and balance beam by running 5 min for three consecutive days before the onset of experimentation. During the experiment, each mouse performed four trials, and the average time that each rodent was able to stay on top of the rotarod treadmill was recorded. The balance beam test was used to assess subtle motor coordination and balance. After initial training, mice were given four consecutive trials where they were required to cross 60 cm of a round beam (14 mm in diameter). The time for crossing the beam and the number of hind-feet slip were recorded. Hanging endurance was determined by Kondziella's inverted hanging screen test. Mice were putted at the center of grasped wire screen (bar thickness, 2 mm; mesh, 10 mm). After inverting the wire screen, the time of sustained limb tension on the screen were recorded. A fixed maximum hanging limit of 600 seconds was used. Each trial was repeated three times at 30-min interval, the mean values were recorded.

[2] = system: kidney, heart, spleen and liver in aged mice; assay: Organ pathology, blood chemistry and tolerability after 2 months of GB in mice
Method: All animals were purchased from Laboratory Animal Services Centre, the Chinese University of Hong Kong, ad libitum fed the standard diet (#5V0f, LabDiet, St. Louis, MO, USA), and housed at specific-pathogen-free and humidity-controlled conditions under a 12 light: 12 dark photoperiod with temperature at 20-22° C. Animals were kept up to five per cage and were randomly assigned to control and experimental groups in all experiments. […] For the short-term experiment, 3-(young), 6-(adult) and 20-month-old (aged) female C57BL/6 mice were administered 12 mg/kg body weight GB (#G6910, Sigma-Aldrich, St. Louis, MO, USA) or vehicle daily by oral gavage for two months. […] GB was diluted to the appropriate concentration in 100 μL of sterile PBS (#10378016, Gibco, Waltham, MA, USA).
Tissue samples were harvested and embedded in paraffin or in OCT (#4583, Sakura Finetek USA, Torrance, CA, USA). For paraffin-embedded samples, 10 μm sections were deparaffinized by xylene and alcohol gradient treatment and were then hydrated by distilled water and processed for heat-induced antigen retrieval with antigen retrieval solution at 70° C. for 1.5 hours before staining. For OCT-embedded samples, 10 μm sections were hydrated by distilled water before staining. Hematoxylin and cosin staining (#MHS16 and #HT110116 Sigma-Aldrich), oil red O staining (#00625, Sigma-Aldrich), and Masson's trichrome staining (#HT15, Sigma-Aldrich) were used to assess the histology, lipid droplet, and collagen deposition. For immunohistochemical staining, antigen-retrieval samples were blocked with 5% bovine serum albumin (BSA) (#A9647, Sigma-Aldrich) for 1 hour at room temperature and incubated with primary antibodies overnight at 4° C., followed by a ready-to-use IHC/ICC Kit (#K405, BioVision, Milpitas, CA, USA) at room temperature. The samples were then suspended with double-distilled water and then stained with hematoxylin. For immunocytochemical staining, samples were blocked with 5% BSA (Sigma-Aldrich) for 1 hour at room temperature and incubated with primary antibodies overnight at 4° C., then washed with PBS for ten minutes, and then incubated with secondary antibody for 1 hour at room temperature, then washed with PBS three times for ten minutes.

[3] = system: 6-month-old female C57BL/6 mice; assay: GB in 6-month-old adult mice (steady state): osteocalcin, myofiber CSA, grip strength; assay type: in vivo, mouse; conditions: 6-month-old female mice
Method: as §1
Serum was collected by cardiac puncture upon sacrifice.
The maintenance of muscle mass and strength in adulthood reduces the risk of sarcopenia and improves healthspan. Osteocalcin is necessary to maintain muscle mass and health throughout the whole life, and loss of osteocalcin after the age of 30 leads to muscle loss. Since GB increased osteocalcin in aged osteoblasts, we postulated that oral GB administration could increase osteocalcin and skeletal muscle mass in mice. In a proof-of-principle experiment, we gave GB to 6-month-old female mice equivalent to 30-year-old women for two months (FIG. 1A). […] GB administration enlarged the CSA of the tibialis anterior and soleus muscles (FIGS. 1C to 1E, p=0.021 and <0.0001, respectively) and increased forelimb grip strength (FIG. IF, p=0.036).

CC1C(=O)OC2C(O)C34C5CC(C(C)(C)C)C36C(OC(=O)C6O)OC4(C(=O)O5)C12O (centres unmarked) [GB, Ginkgolide B]
grip strength ([1]; GB 12 mg/kg daily oral 2 months vs vehicle-aged, p<0.01): higher
duration of hanging ([1]; GB 2 months vs vehicle-aged, p<0.0001): prolonged duration
duration on the rotarod ([1]; GB 2 months vs vehicle-aged, p<0.05): prolonged duration
balance beam: latency to cross ([1]; GB 2 months, p<0.001): decreased
balance beam: number of foot slips ([1]; GB 2 months, p<0.001): reduced
collagen deposition in multiple organs ([2]; Masson's trichrome, aged mice): reduced
severe acute toxicity ([2]; adult, aged or OVX mice, none of the treated mice dying during the two months of GB administration): did not find severe acute toxicity
compensatory hypertrophy of the kidney and heart ([2]; aged mice, GB 2 months): decreased
aging-related compensatory hypertrophy of glomerulus ([2]; aged mice, histopathology, p<0.0001): reduced
aging-related compensatory hypertrophy of cardiomyocytes ([2]; aged mice, histopathology, p=0.0018): reduced
reduction of aging-related hepatic lipid accumulation ([2]; aged mice, p<0.0001): 3.8 fold
decrease in white pulp and white pulp/red pulp ratio in aged spleen ([2]; aged mice, p<0.0001 and p=0.0143): ameliorated
number of hepatic microgranulomas ([2]; aged mice, p=0.0031): decreased
CSA of the soleus muscle ([3]; GB 12 mg/kg daily oral 2 months vs vehicle, p<0.0001): enlarged
CSA of the tibialis anterior muscle ([3]; GB 12 mg/kg daily oral 2 months vs vehicle, p=0.021): enlarged
forelimb grip strength ([3]; GB 12 mg/kg daily oral 2 months vs vehicle, p=0.036): increased
circulating osteocalcin ([3]; GB 12 mg/kg daily oral gavage 2 months vs vehicle, p=0.0114): significantly higher
